Patent US7943577B2, “Alpha-fetoprotein peptides and uses thereof” (Albany Medical College, priority 2001, dated 2011)
“Also recorded” adds a separate entry of the source. Square brackets hold non-standard residues; d marks the D form. Ends that are not written are not given here. Hyp = O=C(O)[C@@H]1C[C@@H](O)CN1

Tests used:
[1] = system: immature mouse uterus; experiment: Immature mouse uterine growth assay; assay type: in vivo; settings: for uterotrophic effect of agent alone: peptide even at a dose of 10 μg/mouse, FIG. 13a; for inhibition of the uterotrophic effect of estradiol: Pep 1 μg i.p. one hour before E2 0.5 μg i.p.; for inhibition of the uterotrophic effect of estradiol / inhibition of the uterotrophic effect of tamoxifen: FIG. 13b; for inhibition of the uterotrophic effect of tamoxifen: Pep 1 μg i.p. one hour before Tam 1.0 μg i.p.; for biological activity of gel filtration fraction of aged peptide: 1 μg i.p.
Experimental: Immature Mouse Uterine Growth Assay.
Differences between groups were evaluated, employing the non-parametric Wilcoxon Sum of Ranks test (one-sided).

[2] = system: MCF-7 human breast cancer xenografts; experiment: Human breast cancer xenograft assay, MCF-7; assay type: in vivo; settings: for tumor volumes versus E2 alone group (Wilcoxon ranks-sum test): MCF-7, day 30 (FIG. 7: 20 days and 30 days) after tumor implantation, p<0.05; for growth (tumor volume) of MCF-7 xenografts in E2-supplemented SCID mice: peptide 1 μg i.p. twice a day, tamoxifen 50 μg i.p. once a day, 30-day observation
Experimental: Human Breast Cancer Xenograft Assay. A bioassay for anti-breast cancer activity was performed according to Bennett et al. (23;24). Confluent MCF-7 human breast cancer cells were trypsinized into suspension and pelleted by centrifugation at 200×g. The pellet was then solidified into a fibrin clot by exposing it to 10 μl of fibrinogen (50 mg/ml) and 10 μl of thrombin (50 units/ml). The solid mass of MCF-7 cells was then cut into pieces 1.5 mm in diameter. A tumor segment of ˜1.5 mm in diameter was implanted under the kidney capsule of an immunodeficient ICR-SCID male mouse (Taconic Farms) that weighed about 25 g. Estrogen supplementation was accomplished by s.c. implantation of a silastic tubing capsule containing solid E2 inserted on the day of tumor implantation. Peptide was injected i.p. every twelve hours at a dose of 1 μg per mouse. Tumor growth was monitored during survival laparotomy at 10 day intervals by measurement of the diameters of the short (d) and long axes (D) of each tumor, using a dissecting microscope equipped with an ocular micrometer. Tumor volumes were calculated using the formula (π/6) (d)^2D, assuming the tumor shape to be an ellipsoid of revolution around its long axis (D). There were five to seven replicate mice included in each treatment group. Mean tumor volume±standard error in each group was calculated for display of growth curves. Significance of differences between groups were tested using the one-sided Wilcoxon Sum of Ranks Test.

[3] = system: MCF-7/Tam human breast cancer xenografts; experiment: Human breast cancer xenograft assay, tamoxifen-resistant MCF-7 subline; assay type: in vivo; settings: for growth (tumor volume) of tamoxifen-resistant MCF-7 subline xenografts in E2-supplemented SCID mice: peptide 1 μg i.p. twice a day, tamoxifen 50 μg i.p. once a day, 30-day observation
Experimental: (§1) Cell Lines. T47D and MDA-231 human breast cancer cell lines were purchased from the American Type Culture Collection (Manassas, Va.). Growth medium for T47D cells consisted of RPMI 1640 (Life Technologies, Germantown, Md.) supplemented with 10% fetal bovine serum (Life Technologies) and 8 μg/ml bovine insulin (Sigma, St. Louis, Mo.). […] The MCF-7 cell line was obtained from Dr. Alberto C. Baldi, Institute of Experimental Biology and Medicine, Buenos Aires, Argentina, and was maintained as previously described by Gierthy et al. (1991). […] Human Breast Cancer Xenograft Assay. A bioassay for anti-breast cancer activity was performed according to Bennett et al. (23;24). […] The pellet was then solidified into a fibrin clot by exposing it to 10 μl of fibrinogen (50 mg/ml) and 10 μl of thrombin (50 units/ml). The solid mass of MCF-7 cells was then cut into pieces 1.5 mm in diameter. A tumor segment of ˜1.5 mm in diameter was implanted under the kidney capsule of an immunodeficient ICR-SCID male mouse (Taconic Farms) that weighed about 25 g. […] Peptide was injected i.p. every twelve hours at a dose of 1 μg per mouse. Tumor growth was monitored during survival laparotomy at 10 day intervals by measurement of the diameters of the short (d) and long axes (D) of each tumor, using a dissecting microscope equipped with an ocular micrometer. […] There were five to seven replicate mice included in each treatment group. Mean tumor volume±standard error in each group was calculated for display of growth curves. Significance of differences between groups were tested using the one-sided Wilcoxon Sum of Ranks Test.

[4] = system: T47D human breast cancer xenografts; experiment: Human breast cancer xenograft assay, T47D; assay type: in vivo; settings: for growth (tumor volume) of T47D xenografts in E2-supplemented SCID mice: peptide 1 μg i.p. twice a day, 30-day observation
Experimental: as §1

[5] = system: MDA-MB-231 human breast cancer xenografts; experiment: Human breast cancer xenograft assay, MDA-MB-231; assay type: in vivo; settings: for growth (tumor volume) of ER− MDA-MB-231 xenografts: peptide 1 μg i.p. twice a day, tamoxifen 50 μg i.p. once a day, 30-day observation
Experimental: as §1

[6] = in vivo; cited from earlier work
[7] = system: MCF-7 breast cancer cells; settings: ERα-positive breast cancer (MCF-7) cells; Background of Example IV; cited from earlier work
[8] = system: human breast cancer lines; settings: DeFreest et al., J Pept Res 63:409-419, 2004; cited from earlier work
[9] = molecular target: T1, estrogen receptor (rabbit uterine cytosol) (Oryctolagus cuniculus, UniProt G1SML6); experiment: Assessment of estrogen receptor antagonism ([3H]estradiol binding)
T1 sequence (G1SML6 1-598): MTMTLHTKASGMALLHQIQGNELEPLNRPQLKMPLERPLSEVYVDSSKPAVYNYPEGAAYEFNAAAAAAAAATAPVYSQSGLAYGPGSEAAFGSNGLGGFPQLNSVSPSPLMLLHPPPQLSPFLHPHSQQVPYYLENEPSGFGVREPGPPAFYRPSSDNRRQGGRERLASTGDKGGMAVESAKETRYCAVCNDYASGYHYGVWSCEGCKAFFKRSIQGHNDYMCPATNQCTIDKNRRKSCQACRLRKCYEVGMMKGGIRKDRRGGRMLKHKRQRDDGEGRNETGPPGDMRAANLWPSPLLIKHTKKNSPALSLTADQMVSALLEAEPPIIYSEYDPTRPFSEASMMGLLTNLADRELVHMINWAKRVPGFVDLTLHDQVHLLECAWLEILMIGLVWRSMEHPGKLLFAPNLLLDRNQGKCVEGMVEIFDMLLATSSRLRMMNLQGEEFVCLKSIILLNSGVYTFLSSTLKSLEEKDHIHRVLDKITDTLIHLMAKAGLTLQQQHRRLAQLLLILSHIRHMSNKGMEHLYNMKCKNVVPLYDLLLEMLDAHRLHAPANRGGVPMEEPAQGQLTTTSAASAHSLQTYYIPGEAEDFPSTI
Experimental: Assessment of Estrogen Receptor Antagonism. Commercially obtained rabbit uteri (Pel-Freez Biological, Rogers, A R) were used as a source of estrogen receptor. Uteri were pulverized in a stainless steel impact mortar under liquid nitrogen and homogenized (20% w/v) in assay buffer (10 mM Tris (pH 7.4), 1.5 mM EDTA, 10% glycerol, 10 mM monothioglycerol, and 10 mM sodium molybdate] on ice. Centrifugation (50,000×g) for 1 h yielded a supernatant containing cytosol, which was adjusted with assay buffer to 2.5 mg protein/ml. All incubations were carried out in triplicate, each containing 100 μl of cytosol, 20 μl of […] 6,7-[3H]estradiol (50 Ci/mmol; DuPont Pharmaceuticals Company, Wilmington, Del., U.S.A.), and 80 μl of putative antagonist in assay buffer. Total count tubes received 20 μl of [3H]estradiol and 180 μl of assay buffer. After incubation overnight at 4° C., all but the total count tubes received 300 μl of dextran-coated charcoal suspension; tubes were agitated for 15 min and then centrifuged (1,000×g) for 15 min. Supernatants were decanted into counting vials, scintillant was added, and protein-bound tritium was determined by liquid scintillation counting.

Compound: CC/C(=C(\c1ccccc1)c1ccc(OCCN(C)C)cc1)c1ccccc1 [tamoxifen]
- uterotrophic effect of agent alone ([1]; i.p.): stimulate the growth of the immature mouse uterus
- tumor volumes versus E2 alone group (Wilcoxon ranks-sum test) [2]: significantly different
- growth (tumor volume) of MCF-7 xenografts in E2-supplemented SCID mice [2]: prevented growth; also recorded: no increase in tumor volume
- growth (tumor volume) of tamoxifen-resistant MCF-7 subline xenografts in E2-supplemented SCID mice [3]: resistant to tamoxifen in vivo; also recorded: only minimally effective
- growth (tumor volume) of T47D xenografts in E2-supplemented SCID mice [4]: prevented growth
- growth (tumor volume) of ER− MDA-MB-231 xenografts [5]: Neither peptide nor tamoxifen were effective; also recorded: did not affect the growth
- users with uterine cancer as side effect [6]: 0.2%

Compound: Cyclo[EMTOVNOGQ]
- expression of estrogen receptor-α (ERα) [7]: downregulation of expression of estrogen receptor-α (ERα)
- proliferation of human breast cancer lines in immunocompromised mice [8]: inhibit proliferation of human breast cancer lines

Compound: EMTOVNOG (EMT[Hyp]VN[Hyp]G; listed as Homo sapiens) [SEQ ID NO: 4]
- inhibition of the uterotrophic effect of estradiol ([1]; listed as Pep): significantly different
- inhibition of the uterotrophic effect of estradiol ([1]; listed as peptide): inhibited the uterotrophic effect of tamoxifen as well as that of estradiol
- inhibition of the uterotrophic effect of tamoxifen [1]: significantly inhibited tamoxifen's uterotrophic effect
- inhibition of the uterotrophic effect of tamoxifen ([1]; listed as Pep): significantly different
- inhibition of the uterotrophic effect of tamoxifen ([1]; listed as peptide): inhibited the uterotrophic effect of tamoxifen
- uterotrophic effect of agent alone ([1]; i.p.): no uterotrophic effect whatsoever
- tumor volumes versus E2 alone group (Wilcoxon ranks-sum test) [2]: significantly different
- growth (tumor volume) of MCF-7 xenografts in E2-supplemented SCID mice [2]: prevented growth; also recorded: no significant increase in tumor volume
- tumor volumes versus E2 alone group (Wilcoxon Ranks Sum Test) ([3]; MCF-7 subline made resistant to tamoxifen, day 30, p<0.05): significantly different
- growth (tumor volume) of tamoxifen-resistant MCF-7 subline xenografts in E2-supplemented SCID mice [3]: completely prevented the xenograft growth; also recorded: completely stopped the growth
- tumor volumes versus E2 alone group (Wilcoxon Ranks Sum Test) ([4]; T47D, day 30, p<0.05): significantly different
- growth (tumor volume) of T47D xenografts in E2-supplemented SCID mice [4]: completely prevented tumor growth
- differences in tumor volumes between groups ([5]; MDA-MB-231, FIG. 11): no differences in tumor volumes
- growth (tumor volume) of ER− MDA-MB-231 xenografts [5]: Neither peptide nor tamoxifen were effective; also recorded: had no effect on the growth
- competition/interference with estrogen binding to the estrogen receptor ([9]; cell-free system): does not interfere with the binding of [^3H]estradiol to the estrogen receptor
- interference with E2 binding to ER ([9]; peptide concentration range of 10^−10M to 10^−5M): no interference with E2 binding to ER

Compound: EMTPVNPG (listed as Homo sapiens) [SEQ ID NO: 6]
- biological activity of stored inactive peptide after brief treatment with 4M urea [1]: regenerated by 4M urea

Compound: QMTPVNPG (listed as Homo sapiens) [SEQ ID NO: 2]
- biological activity of stored inactive peptide after brief treatment with 4M urea [1]: restored its biological activity
- % Inhibition of E2-Stimulated Growth of Immature Mouse Uterus ± SE ([1]; Stored over 1 year (lyophilized, −20° C.), 1 μg per mouse i.p.): 0 ± 2%
- biological activity of gel filtration fraction of aged peptide ([1]; higher molecular weight fraction (FIG. 2b, left side of peak)): biologically inactive
- optimal dose for inhibition of estrogen-stimulated growth of mouse uterus ([1]; i.p., FIG. 1a): 1 μg/mouse
- biological activity of gel filtration fraction of aged peptide ([1]; lower molecular weight fraction (FIG. 2b, right side of peak)): active
- anti-estrotrophic activity as a function of storage time (shelf-life) ([1]; stored at −20° C. in the lyophilized state, 1 μg per mouse, FIG. 1b): diminished to insignificant levels after five weeks of storage
- biological activity of aged peptide ([1]; stored in the lyophilized state at −20° C. for over one year): completely biologically inactive
